In assay [1] the test system is polyubiquitin in the Golgi of HeLa cells. In words: High content immunofluorescence microscopy of polyubiquitin in drug-treated cells. It is filed as cell-based, human. The note with it: drugs for 2 hrs (tunicamycin 5 μg/ml, monensin 2 mM, MG-132 40 μM), vs untreated. How it is done:
HEK 293, IMR-90 and HeLa cells were grown in DMEM supplemented with 10% fetal bovine serum, 1% Penicillin/streptomycin and L-glutamine (2 mmole/liter) (Biological industries) at 37° C. with 5% CO2. Drugs were introduced to cells for 2 hrs at varying concentrations. Tunicamycin (Sigma) was given at 5 μg/ml. Treatment with the glycosylation inhibitor tunicamycin is known to cause accumulation of unfolded glycoproteins in the ER which is followed by […] of these aberrant proteins. […] Monensin (Enco scientific services) was given at 2 mM and MG-132 (Biotest) at 40 μM. Monensin is an antibiotic, commercially known as Golgi-stop. This drug inhibits the transport of proteins between the medial and trans-Golgi stacks thus also inhibiting phosphorylation, addition of galactose to glycoproteins and sulfation that occur in the trans-Golgi (Griffiths et al., 1983; Rosa et al., 1992). Cell death assessment was done by trypan blue staining and counted with Countess IFM automated cell counter (Thermo Fisher). Proliferation of mammalian cells was measured by XTT assay.
HeLa cells, grown on 96-well ‘cell carrier’ plates (Perkin Elmer) were fixed in 4% paraformaldehyde (Electron microscopy sciences) and permeabilized in 0.5% triton (sigma)—PBS (biological industries). Primary antibodies were introduced for 1 hr and secondary antibodies for 30 min, both in PBS-2% BSA. Hoechst staining (Sigma) was done per product protocol. Images were acquired using the ‘Operetta’ high content screening microscope at X40 magnification and analyzed by ‘Harmony’ software (Perkin Elmer).
Constitutive and Stress-Induced Ubiquitylation of Proteins Retained in the Golgi The bioinformatics analysis of the extent of ubiquitylation in the Golgi prompted us to confirm the prediction for Golgi ubiquitylation in live mammalian cells. To this end, a high content screening microscopy system was utilized to assess and quantify the levels of polyubiquitylation in the Golgi apparatus under various stress inducing drug treatments. For this assay, drugs known to induce cell stress by different pathways were selected. Immunofluorescence images of HeLa cells stained for the Golgi marker giantin and poly-ubiquitin show Golgi localized polyubiquitylated puncta, indicating a basal level of protein steady state polyubiquitylation in the Golgi (FIG. 3A). Proteasomal inhibition is known to cause the accumulation of polyubiquitylated proteins that are bound for proteasomal degradation in the cell (37).
Next, the present inventors examined whether or not this accumulation also occurs in the Golgi, following treatment with the proteasomal inhibitor MG-132. […] This increase in polyubiquitylated proteins in the Golgi points to the possibility that as in the case of ERAD, polyubiquitylated proteins that are bound for degradation accumulate in the Golgi as well as in the ER upon proteasomal inhibition. Treatment with the glycosylation inhibitor tunicamycin is known to cause accumulation of unfolded glycoproteins in the ER which is followed by poly-ubiquitylation and degradation of these aberrant proteins. […] Monensin is an antibiotic, commercially known as Golgi-stop. This drug inhibits the transport of proteins between the medial and trans-Golgi stacks thus also inhibiting phosphorylation, addition of galactose to glycoproteins and sulfation that occur in the trans-Golgi (40, 41). […]

The next assay concerns MRL/LPR mice. In words: Mouse model of systemic lupus erythematosus. It is filed as in vivo. From the text: FIGS. 14A-14B show the effect of monensin in treatment of systemic lupus erythematosus. […] Furthermore, monensin treated mice were more relaxed when compared to mock (0.35% ethanol) treated mice.
In the next assay the test system is RPMI 8226 cells. Description: Live/dead ratio, trypan blue and automated cell counter. It counts as cell-based, human. How it is done:
Various cell lines treated with 2 μM of monensin over 2 days show increased cell death. Cells were counted using countess 2 automated cell counter to determine live/dead ratios.
(A) Quantification of live/dead cells following 48 hours of monensin treatment (2 μM). (B) Quantification of cell death of RPMI-8226 cells over 3 days of treatment with monensin […]. (C) Western blot against K48-linked polyubiquitin chains of Golgi fractions collected from RPMI 8226 cells either untreated or treated with monensin for 2 hrs. (D) XTT assay of untreated HeLa cells following siRNA mediated knockdowns as indicated Pvalue(siPSMD6+siHACE1)=0.002. […] (H) FACS analysis and quantification of multiple myeloma cells (MM) and normal B cells (BC) in spleens of control vs. monensin-treated mice Pvalue(MM monensin)=0.008. (I) FACS analysis and quantification of multiple myeloma cells (MM) and normal B cells (BC) in bone marrow of control vs. monensin-treated mice. […]
HEK 293, IMR-90 and HeLa cells were grown in DMEM supplemented with 10% fetal bovine serum, 1% Penicillin/streptomycin and L-glutamine (2 mmole/liter) (Biological industries) at 37° C. with 5% CO2. […] Cell death assessment was done by trypan blue staining and counted with Countess IFM automated cell counter (Thermo Fisher). Proliferation of mammalian cells was measured by XTT assay. […]

For another assay, the system named is 5TGM1 MM cells. Description: FACS apoptosis measurement with annexin V and 7AAD. It counts as cell-based, murine. The note with it: 5TGM1 cells; 12 hours, 1 μM monensin. How it is done: FIGS. 10A-10F show apoptosis measurement by FACS analyses of murine MM 5TGM1 cells treated with monensin. […] Bortezomib is a golden standard drug for MM.
Untreated cells show an expected low level of cell death, as in controls for DMSO, in which bortezomib is diluted and ethanol, in which monensin is diluted (FIGS. 10A-C).

One molecule from US20200268707A1, “METHODS OF MODULATING PROTEIN EXOCYTOSIS AND USES OF SAME IN THERAPY” (Yeda Research and Development Co. Ltd., priority 2016, published 2020) can be followed below.

“Also recorded” adds a separate entry of the source.

As to `CC[C@@]1([C@@H]2O[C@@H]([C@H]3O[C@@](O)(CO)[C@H](C)C[C@@H]3C)C[C@@H]2C)CC[C@H]([C@]2(C)CC[C@]3(C[C@H](O)[C@@H](C)[C@@H]([C@@H](C)[C@@H](OC)[C@H](C)C(=O)O)O3)O2)O1` [monensin], the Golgi-localized polyubiquitin entry in assay [1] is recorded as “increase in Golgi localized poly-ubiquitin, to slightly lower levels than those measured with tunicamycin”. Further, the “behaviour compared to mock treated mice” value with MRL/LPR mice (80 μM monensin in drinking water) was “more relaxed”. The skin lesions entry in the assay with MRL/LPR mice (80 μM monensin in drinking water from 14 weeks old) is given as “abolished the appearance of skin lesions; also recorded: do not exhibit skin lesions”. For the same molecule, the “splenomegaly / spleen weight” value in the assay on MRL/LPR mice (80 μM monensin in drinking water, vs mock (0.35% ethanol)) was “significantly reduced splenomegaly; also recorded: do not show an aberrant increase in weight”. In addition, the “cell death (live/dead ratio)” value in the assay on RPMI 8226 cells (RPMI 8226 multiple myeloma, secretory, 2 μM monensin over 2 days) is “greatest; also recorded: particularly sensitive”. For the same molecule, the MM cells killed with RPMI 8226 cells (RPMI-8226 cells, 3 days of treatment with monensin) was 99%. The apoptotic cell death entry with 5TGM1 MM cells is “comparable to that found in bortezomib treated cells”.
